Laboratory results published in PubChem BioAssay AID248 (DTP/NCI, 2004).
Values joined by “and” are separate entries in the source; they are usually repeats but may differ in a detail not shown here. Equal entries are not always repeated. Inconclusive results and toxic doses are left out. Rule as the data show it: active = T/C of 150% or more; inactive = T/C below 125%. Peptide text beside a SMILES is read from it. * marks the point of attachment. Cbz = O=C(OCc1ccccc1)*

Tested on: L1210 leukemia ip in BDF1 mice, survival T/C
Assay: NCI In Vivo Anticancer Drug Screen. Data for tumor model L1210 Leukemia (intraperitoneal) in B6D2F1 (BDF1) mice
Conditions: endpoint: mean survival time, higher = longer survival
Procedure, shortened: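 Survival endpoint. Drug-treated group vs vehicle group, expressed as T divided by C. Tumor passaged by transplantation.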

[1] = dose: 100.0 mg/kg/injection, schedule: Q01DX001 (ip), vehicle: saline
[2] = dose: 200.0 mg/kg/injection, schedule: Q01DX001 (ip), vehicle: saline
[3] = dose: 100.0 mg/kg/injection, schedule: Q04DX003 (ip), vehicle: Klucel (hydroxypropylcellulose) (HPC)
[4] = dose: 200.0 mg/kg/injection, schedule: Q04DX003 (ip), vehicle: Klucel (hydroxypropylcellulose) (HPC)
[5] = dose: 400.0 mg/kg/injection, schedule: Q04DX003 (ip), vehicle: Klucel (hydroxypropylcellulose) (HPC)
[6] = dose: 50.0 mg/kg/injection, schedule: Q01DX009 (ip), vehicle: saline with Tween-80
[7] = dose: 100.0 mg/kg/injection, schedule: Q01DX009 (ip), vehicle: saline with Tween-80
[8] = dose: 200.0 mg/kg/injection, schedule: Q01DX009 (ip), vehicle: saline with Tween-80
[9] = dose: 100.0 mg/kg/injection, schedule: Q04DX003 (ip), vehicle: saline with Tween-80
[10] = dose: 200.0 mg/kg/injection, schedule: Q04DX003 (ip), vehicle: saline with Tween-80
[11] = dose: 400.0 mg/kg/injection, schedule: Q04DX003 (ip), vehicle: saline with Tween-80
[12] = dose: 100.0 mg/kg/injection, schedule: Q01DX001 (ip), vehicle: saline with Tween-80
[13] = dose: 200.0 mg/kg/injection, schedule: Q01DX001 (ip), vehicle: saline with Tween-80
[14] = dose: 400.0 mg/kg/injection, schedule: Q01DX001 (ip), vehicle: saline with Tween-80
[15] = dose: 100.0 mg/kg/injection, schedule: Q04DX002 (ip), vehicle: saline with Tween-80
[16] = dose: 200.0 mg/kg/injection, schedule: Q04DX002 (ip), vehicle: saline with Tween-80

Measured: T/C

NC(=S)N/N=C/c1ccc([N+](=O)[O-])cc1
inactive: dose: 12.5 mg/kg/injection, schedule: Q01DX001 (ip), vehicle: saline with Tween-80 95 % of control | dose: 25.0 mg/kg/injection, schedule: Q01DX001 (ip), vehicle: saline with Tween-80 95 % of control | dose: 50.0 mg/kg/injection, schedule: Q01DX001 (ip), vehicle: saline with Tween-80 91 % of control

CC(CN(C)C)CN1c2ccccc2CCc2ccccc21 (centres undefined)
inactive: dose: 4.37 mg/kg/injection, schedule: Q01DX009 (ip), vehicle: saline 101 % of control | dose: 8.75 mg/kg/injection, schedule: Q01DX009 (ip), vehicle: saline 101 % of control | dose: 17.5 mg/kg/injection, schedule: Q01DX009 (ip), vehicle: saline 98 % of control | dose: 17.5 mg/kg/injection, schedule: Q04DX003 (ip), vehicle: saline 102 % of control | dose: 35.0 mg/kg/injection, schedule: Q01DX009 (ip), vehicle: saline 107 % of control | dose: 35.0 mg/kg/injection, schedule: Q04DX003 (ip), vehicle: saline 102 % of control | dose: 70.0 mg/kg/injection, schedule: Q04DX003 (ip), vehicle: saline 104 % of control

CN(C)c1ccc(/C(=N\O)C(=O)O)cc1
inactive: dose: 50.0 mg/kg/injection, schedule: Q01DX001 (ip), vehicle: saline 107 % of control | [1] 105 % of control | [2] 100 % of control

CCNC(=O)c1c2ccccc2nc2c1c(C)c(C)c1ccccc12
inactive: [3] 108 % of control | [4] 112 % of control | [5] 106 % of control

CC(=O)OC1CCCC2=C(C)C(=O)CCC21C (centres undefined)
inactive: [6] 100 % of control | [7] 118 % of control | [8] 94 % of control

CCN=C(N)c1ccc(NC(=O)c2ccc(C(=O)Nc3ccc(C(N)=NCC)cc3)cc2)cc1
inactive: dose: 1.0 mg/kg/injection, schedule: Q01DX Z (ip), vehicle: other 115 % of control | dose: 2.0 mg/kg/injection, schedule: Q01DX Z (ip), vehicle: other 91 % of control | dose: 8.0 mg/kg/injection, schedule: Q01DX Z (ip), vehicle: carboxymethylcellulose (CMC) 100 % of control

O=c1cc[nH]c2c([N+](=O)[O-])cccc12
inactive: [1] 99 % of control | [2] 96 % of control

O=C(c1ccccc1)C1CSC1Br (centres undefined)
inactive: [9] 102 % of control | [10] 98 % of control | [11] 100 % of control

c1ccc(C23c4ccccc4C(=NC4CCCCC4)C2N3C2CCCCC2)cc1 (centres undefined)
inactive: [1] 94 % of control | dose: 100.0 mg/kg/injection, schedule: Q01DX009 (ip), vehicle: Klucel (hydroxypropylcellulose) (HPC) 97 % of control | [3] 93 % of control | [2] 104 % of control | dose: 200.0 mg/kg/injection, schedule: Q01DX009 (ip), vehicle: Klucel (hydroxypropylcellulose) (HPC) 92 % of control | [4] 94 % of control | dose: 400.0 mg/kg/injection, schedule: Q01DX001 (ip), vehicle: saline 110 % of control | dose: 400.0 mg/kg/injection, schedule: Q01DX009 (ip), vehicle: Klucel (hydroxypropylcellulose) (HPC) 91 % of control | [5] 98 % of control

NS(=O)(=O)c1cc(Cl)ccc1Cl
inactive: [12] 88 % of control | [13] 94 % of control | [14] 91 % of control

CC[N+](C)(CC)CCN1c2ccccc2Sc2ccccc21
inactive: dose: 12.5 mg/kg/injection, schedule: Q04DX003 (ip), vehicle: saline 91 % of control | dose: 25.0 mg/kg/injection, schedule: Q04DX003 (ip), vehicle: saline 94 % of control and 86 % of control | dose: 50.0 mg/kg/injection, schedule: Q04DX003 (ip), vehicle: saline 86 % of control and 88 % of control

CC(C)CCCC(C)C1CCC2C3CC(=O)C45CC4CCC5(C)C3CCC12C (centres undefined)
inactive: dose: 100.0 mg/kg/injection, schedule: Q04DX003 (ip), vehicle: other 97 % of control | dose: 200.0 mg/kg/injection, schedule: Q04DX003 (ip), vehicle: other 102 % of control | dose: 400.0 mg/kg/injection, schedule: Q04DX003 (ip), vehicle: other 108 % of control

O=c1ccc2c(-c3ccccc3O)c3ccc(O)cc3oc-2c1
inactive: [3] 93 % of control | [4] 94 % of control | [5] 92 % of control

CSCCC(NC(=O)C(CO)NC(=O)OCc1ccccc1)C(=O)O (stereo not drawn) (Cbz-Ser-Met-OH; configuration not given here)
inactive: [3] 96 % of control | [4] 97 % of control | [5] 96 % of control

Cc1cc(C)cc(OC(=O)Nc2ccccc2C)c1
inactive: [15] 106 % of control | [16] 91 % of control

CCOc1ccc(-c2nccs2)cc1N
inactive: dose: 75.0 mg/kg/injection, schedule: Q04DX003 (ip), vehicle: Klucel (hydroxypropylcellulose) (HPC) 104 % of control | dose: 150.0 mg/kg/injection, schedule: Q04DX003 (ip), vehicle: Klucel (hydroxypropylcellulose) (HPC) 92 % of control | dose: 300.0 mg/kg/injection, schedule: Q04DX003 (ip), vehicle: Klucel (hydroxypropylcellulose) (HPC) 93 % of control

COc1cc(-c2nc3ccccc3c(=O)o2)cc(OC)c1OC
inactive: [7] 105 % of control | [9] 103 % of control | [8] 91 % of control | [10] 89 % of control | [11] 97 % of control

COC(=N\S(=O)(=O)c1ccccc1)/C(=N\S(=O)(=O)c1ccccc1)OC
inactive: dose: 100.0 mg/kg/injection, schedule: Q01DX001 (ip), vehicle: Klucel (hydroxypropylcellulose) (HPC) 100 % of control | dose: 200.0 mg/kg/injection, schedule: Q01DX001 (ip), vehicle: Klucel (hydroxypropylcellulose) (HPC) 104 % of control | dose: 400.0 mg/kg/injection, schedule: Q01DX001 (ip), vehicle: Klucel (hydroxypropylcellulose) (HPC) 102 % of control

COc1ccc(C(=O)/C=C/c2ccc3c(c2)OCO3)cc1
inactive: [3] 100 % of control | [4] 94 % of control | [5] 93 % of control

O=C(Nc1ccc(F)cc1)Nc1ccc(Cl)cc1[N+](=O)[O-]
inactive: [6] 94 % of control and 95 % of control | [12] 100 % of control | [15] 102 % of control and 92 % of control | [9] 100 % of control | [13] 95 % of control | [16] 95 % of control and 101 % of control | [10] 97 % of control | [14] 92 % of control | dose: 400.0 mg/kg/injection, schedule: Q04DX002 (ip), vehicle: saline with Tween-80 93 % of control and 98 % of control | [11] 94 % of control

CCO/C=C1\SC(=S)N(c2ccco2)C1=O
inactive: dose: 100.0 mg/kg/injection, schedule: Q01DX009 (ip), vehicle: saline sonified 98 % of control | dose: 200.0 mg/kg/injection, schedule: Q01DX009 (ip), vehicle: saline sonified 103 % of control | dose: 400.0 mg/kg/injection, schedule: Q01DX009 (ip), vehicle: saline sonified 92 % of control

CCCCCCCCCCCCCCCCCCC1=NCCN1
inactive: dose: 2.34 mg/kg/injection, schedule: Q01DX009 (ip), vehicle: saline 101 % of control | dose: 4.68 mg/kg/injection, schedule: Q01DX009 (ip), vehicle: saline 96 % of control | dose: 9.37 mg/kg/injection, schedule: Q01DX009 (ip), vehicle: saline 86 % of control | dose: 18.75 mg/kg/injection, schedule: Q04DX003 (ip), vehicle: saline 90 % of control | dose: 75.0 mg/kg/injection, schedule: Q01DX001 (ip), vehicle: acetone 97 % of control

O=C1c2c(ccc3ccccc23)CCC1Br (centres undefined)
inactive: [3] 97 % of control | [4] 101 % of control | [5] 103 % of control

O=C(Nc1ccccc1)c1ccc(C(F)(F)F)cc1O
inactive: [15] 105 % of control | [16] 103 % of control

Cc1nc2cnc(N)nc2nc1C
inactive: dose: 16.0 mg/kg/injection, schedule: Q01DX Z (ip), vehicle: methylcellulose (MC) 97 % of control | dose: 31.0 mg/kg/injection, schedule: Q01DX Z (ip), vehicle: methylcellulose (MC) 97 % of control | dose: 62.0 mg/kg/injection, schedule: Q01DX Z (ip), vehicle: methylcellulose (MC) 109 % of control | dose: 100.0 mg/kg/injection, schedule: Q01DX001 (ip), vehicle: other 96 % of control | dose: 125.0 mg/kg/injection, schedule: Q01DX Z (ip), vehicle: methylcellulose (MC) 89 % of control and 90 % of control | dose: 200.0 mg/kg/injection, schedule: Q01DX001 (ip), vehicle: other 101 % of control | dose: 250.0 mg/kg/injection, schedule: Q01DX Z (ip), vehicle: methylcellulose (MC) 91 % of control | dose: 400.0 mg/kg/injection, schedule: Q01DX001 (ip), vehicle: other 98 % of control | dose: 500.0 mg/kg/injection, schedule: Q01DX Z (ip), vehicle: methylcellulose (MC) 93 % of control
